Experimental data: patent publication US11787785B2 (NOVARTIS AG, priority 2021, dated 2023)
Where two headings read alike, the source gives them in different places.

Biological target: T1, WIZ protein (HiBit-WIZ fusion protein) (Homo sapiens, UniProt O95785+Q96SW2)
T1 construct: expressed in transfected cells
Test: Quantification of WIZ protein levels in HiBit tag fusion protein assay (WIZ HiBit assay in 293T cells)
Assay type: cell-based
Parameters: remaining activity / Dmax: dose or concentration left out as unconfirmed
In short: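 HiBit-tagged WIZ (N-terminal tag, HSVTK promoter) stably expressed single-copy in 293T cells; 10-point 1:5 compound series, top 25 μM, ~18 h at 37 °C. Lytic HiBit/LgBit luminescence read; Amax = curve-fitted % WIZ-HiBit remaining at 25 μM, DMSO normalized to 100%.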

[1] = HEK-293T, 100 − Amax, at 25 uM; 293T cells; read-out: % degradation of WIZ (100 − Amax)
[2] = HEK-293T, DMSO-normalized, curve-fitted percentage of WIZ-HiBit remaining at 25 uM; 293T cells; read-out: WIZ Amax
[3] = WIZ HiBit assay in 293T cells; 10-point, 5-fold dose response, highest concentration 25 μM, about 18 hours; read-out: WIZ AC50

T1 sequence (O95785 whole entry, the tested form may be a part): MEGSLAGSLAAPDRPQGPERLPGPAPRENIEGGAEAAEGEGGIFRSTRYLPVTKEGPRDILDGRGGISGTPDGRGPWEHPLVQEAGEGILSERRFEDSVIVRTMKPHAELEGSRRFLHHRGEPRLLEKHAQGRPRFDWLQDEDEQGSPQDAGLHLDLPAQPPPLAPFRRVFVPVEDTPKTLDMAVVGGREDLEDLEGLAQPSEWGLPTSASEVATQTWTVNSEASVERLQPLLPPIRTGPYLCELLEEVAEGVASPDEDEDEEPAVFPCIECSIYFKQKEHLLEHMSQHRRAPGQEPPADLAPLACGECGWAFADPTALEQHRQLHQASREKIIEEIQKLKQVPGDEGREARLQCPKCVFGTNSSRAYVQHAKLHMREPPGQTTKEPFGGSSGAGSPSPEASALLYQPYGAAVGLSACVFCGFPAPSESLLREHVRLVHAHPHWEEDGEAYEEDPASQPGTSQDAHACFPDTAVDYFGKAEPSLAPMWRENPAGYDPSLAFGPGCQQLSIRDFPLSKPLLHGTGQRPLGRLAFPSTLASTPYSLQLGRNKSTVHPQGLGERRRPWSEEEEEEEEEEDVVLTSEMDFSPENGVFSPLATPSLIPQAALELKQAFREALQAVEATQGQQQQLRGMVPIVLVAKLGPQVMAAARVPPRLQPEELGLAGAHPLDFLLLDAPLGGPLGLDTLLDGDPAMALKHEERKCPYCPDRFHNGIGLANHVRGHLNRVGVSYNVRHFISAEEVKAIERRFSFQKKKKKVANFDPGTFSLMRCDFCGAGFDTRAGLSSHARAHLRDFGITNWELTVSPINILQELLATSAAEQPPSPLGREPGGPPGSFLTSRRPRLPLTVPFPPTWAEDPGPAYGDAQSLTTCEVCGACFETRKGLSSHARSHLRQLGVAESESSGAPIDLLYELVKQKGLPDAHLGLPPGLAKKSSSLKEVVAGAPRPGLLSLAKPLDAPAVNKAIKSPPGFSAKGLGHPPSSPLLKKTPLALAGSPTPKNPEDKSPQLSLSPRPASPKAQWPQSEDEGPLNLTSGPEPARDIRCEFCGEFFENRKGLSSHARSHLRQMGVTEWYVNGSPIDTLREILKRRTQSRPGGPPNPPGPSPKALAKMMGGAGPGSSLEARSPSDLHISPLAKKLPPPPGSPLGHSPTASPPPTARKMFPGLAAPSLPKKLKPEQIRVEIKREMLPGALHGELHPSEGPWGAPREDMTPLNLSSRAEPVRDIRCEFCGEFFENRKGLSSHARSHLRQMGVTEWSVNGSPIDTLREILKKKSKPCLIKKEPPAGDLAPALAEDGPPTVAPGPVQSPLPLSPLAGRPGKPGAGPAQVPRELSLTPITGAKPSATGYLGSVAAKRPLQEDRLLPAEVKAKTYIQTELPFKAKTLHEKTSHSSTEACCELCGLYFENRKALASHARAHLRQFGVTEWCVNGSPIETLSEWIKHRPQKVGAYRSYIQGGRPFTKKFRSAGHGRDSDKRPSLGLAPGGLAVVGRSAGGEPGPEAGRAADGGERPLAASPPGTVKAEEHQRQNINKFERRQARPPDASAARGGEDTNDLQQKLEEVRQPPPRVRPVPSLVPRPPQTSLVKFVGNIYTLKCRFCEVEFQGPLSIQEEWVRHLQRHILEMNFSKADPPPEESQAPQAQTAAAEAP
T1 sequence (Q96SW2 whole entry, the tested form may be a part): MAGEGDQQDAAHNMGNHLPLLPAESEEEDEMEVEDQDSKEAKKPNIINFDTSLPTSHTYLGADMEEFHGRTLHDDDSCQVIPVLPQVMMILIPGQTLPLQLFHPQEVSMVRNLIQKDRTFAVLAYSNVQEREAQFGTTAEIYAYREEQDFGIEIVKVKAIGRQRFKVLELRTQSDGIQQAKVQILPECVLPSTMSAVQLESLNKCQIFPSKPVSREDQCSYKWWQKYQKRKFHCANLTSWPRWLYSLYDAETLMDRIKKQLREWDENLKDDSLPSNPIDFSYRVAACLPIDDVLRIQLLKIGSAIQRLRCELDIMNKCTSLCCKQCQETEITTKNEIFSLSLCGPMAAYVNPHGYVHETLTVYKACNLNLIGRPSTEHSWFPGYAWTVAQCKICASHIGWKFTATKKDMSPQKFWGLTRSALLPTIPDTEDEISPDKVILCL
T1 sequence (Q16531 whole entry partner, the tested form may be a part): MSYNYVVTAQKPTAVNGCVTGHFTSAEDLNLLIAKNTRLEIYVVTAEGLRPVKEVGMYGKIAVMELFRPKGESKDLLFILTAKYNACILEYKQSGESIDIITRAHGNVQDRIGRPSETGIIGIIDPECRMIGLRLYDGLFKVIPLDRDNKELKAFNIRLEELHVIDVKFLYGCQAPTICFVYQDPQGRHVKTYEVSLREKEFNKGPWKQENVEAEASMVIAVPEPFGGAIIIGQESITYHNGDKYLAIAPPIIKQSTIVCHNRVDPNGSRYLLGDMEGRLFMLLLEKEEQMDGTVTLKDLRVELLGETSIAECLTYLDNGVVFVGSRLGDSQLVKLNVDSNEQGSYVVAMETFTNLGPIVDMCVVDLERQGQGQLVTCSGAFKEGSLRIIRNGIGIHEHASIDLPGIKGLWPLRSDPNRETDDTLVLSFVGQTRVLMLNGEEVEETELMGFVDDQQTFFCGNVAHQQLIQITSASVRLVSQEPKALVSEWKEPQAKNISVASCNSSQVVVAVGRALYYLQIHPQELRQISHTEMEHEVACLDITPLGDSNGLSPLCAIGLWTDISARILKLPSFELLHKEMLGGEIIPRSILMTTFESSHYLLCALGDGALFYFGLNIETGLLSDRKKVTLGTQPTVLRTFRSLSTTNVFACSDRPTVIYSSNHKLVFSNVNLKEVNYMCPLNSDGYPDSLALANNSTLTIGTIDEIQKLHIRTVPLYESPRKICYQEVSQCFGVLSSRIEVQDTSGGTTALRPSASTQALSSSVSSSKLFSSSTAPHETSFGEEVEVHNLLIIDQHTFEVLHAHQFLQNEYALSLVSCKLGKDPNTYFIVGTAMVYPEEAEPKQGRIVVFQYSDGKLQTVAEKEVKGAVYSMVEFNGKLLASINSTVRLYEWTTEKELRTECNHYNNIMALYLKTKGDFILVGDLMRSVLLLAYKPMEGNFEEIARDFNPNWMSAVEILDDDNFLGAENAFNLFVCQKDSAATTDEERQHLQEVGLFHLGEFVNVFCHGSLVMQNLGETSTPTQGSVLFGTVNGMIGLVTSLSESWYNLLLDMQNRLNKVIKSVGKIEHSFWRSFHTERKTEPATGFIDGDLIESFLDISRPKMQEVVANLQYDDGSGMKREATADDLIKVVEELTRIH

Compound | Dmax at 25 µM [1] | remaining activity at 25 µM [2] | DC50 [3] | Dmax (HEK-293T, read-out: % degradation of WIZ (100 − Amax)) | remaining activity (HEK-293T, read-out: WIZ Amax) | DC50 (read-out: WIZ AC50; WIZ HiBit assay in 293T cells; 10-point, 5-fold dose response, highest concentration 25 μM, about 18 hours)
O=C1CCN(c2cnn3ccc(CN4CCN(Cc5cccc(F)c5)CC4)cc23)C(=O)N1 [Example 170] | 53% | 47% | 228 nM |  |  | 
O=C1CCN(c2cnn3ccc(CN4CCN(CC(F)(F)F)CC4)cc23)C(=O)N1 [Example 171] | 52% | 48% | 981 nM |  |  | 
O=C1CCN(c2cnn3ccc(CN4CCN(CC5(C(F)(F)F)CC5)CC4)cc23)C(=O)N1 [Example 172] | 42% | 58% | 527 nM |  |  | 
O=C1CCN(c2cnn3ccc(CN4CCN(CC(F)(F)C(F)F)CC4)cc23)C(=O)N1 [Example 173] | 42% | 58% | 771 nM |  |  | 
O=C1CCN(c2cnn3ccc(CN4CCN(CC5CC(F)(F)C5)CC4)cc23)C(=O)N1 [Example 174] | 81% | 19% | 95 nM |  |  | 
CC(c1cccnc1)N1CCN(Cc2ccn3ncc(N4CCC(=O)NC4=O)c3c2)CC1 (stereo not drawn) [Example 175] | 40% | 60% | 1240 nM |  |  | 
CC(C)(C1CCC(F)(F)CC1)N1CCN(Cc2ccn3ncc(N4CCC(=O)NC4=O)c3c2)CC1 [Example 181, 1-(5-((4-(2-(4,4-difluorocyclohexyl)propan-2-yl)piperazin-1-yl)methyl)pyrazolo[1,5-a]pyridin-3-yl)dihydropyrimidine-2,4(1H,3H)-dione] |  |  |  | 75% | 25% | 30 nM

Second part, led by results:

Dmax at 25 µM [1] | remaining activity at 25 µM [2] | DC50 [3] | Compound | Dmax (HEK-293T, read-out: % degradation of WIZ (100 − Amax)) | remaining activity (HEK-293T, read-out: WIZ Amax) | DC50 (read-out: WIZ AC50; WIZ HiBit assay in 293T cells; 10-point, 5-fold dose response, highest concentration 25 μM, about 18 hours)
38% | 62% | 1400 nM | O=C1CCN(c2cnn3ccc(CN4CCN(Cc5ccncc5)CC4)cc23)C(=O)N1 [Example 176] |  |  | 
77% | 23% | 106 nM | O=C1CCN(c2cnn3ccc(CN4CCN(CC5CCOC5)CC4)cc23)C(=O)N1 (stereo not drawn) [Example 177] |  |  | 
76% | 24% | 48 nM | O=C1CCN(c2cnn3ccc(CN4CCN(CCc5ccccc5)CC4)cc23)C(=O)N1 [Example 178] |  |  | 
81% | 19% | 78 nM | CO[C@H]1CC[C@@H](CN2CCN(Cc3ccn4ncc(N5CCC(=O)NC5=O)c4c3)CC2)CC1 [Example 180, 1-(5-((4-(((1s,4s)-4-methoxycyclohexyl)methyl)piperazin-1-yl)methyl)pyrazolo[1,5-a]pyridin-3-yl)dihydropyrimidine-2,4(1H,3H)-dione] |  |  | 
67% | 33% | 199 nM | CC(C)(C1CCOCC1)N1CCN(Cc2ccn3ncc(N4CCC(=O)NC4=O)c3c2)CC1 [Example 182, 1-(5-((4-(2-(tetrahydro-2H-pyran-4-yl)propan-2-yl)piperazin-1-yl)methyl)pyrazolo[1,5-a]pyridin-3-yl)dihydropyrimidine-2,4(1H,3H)-dione] |  |  | 
65% | 35% | 468 nM | CC(C)(O)CN1CCN(Cc2ccn3ncc(N4CCC(=O)NC4=O)c3c2)CC1 [Example 183, 1-(5-((4-(2-hydroxy-2-methylpropyl)piperazin-1-yl)methyl)pyrazolo[1,5-a]pyridin-3-yl)dihydropyrimidine-2,4(1H,3H)-dione] |  |  | 
29% | 71% | 1630 nM | O=C1CCN(c2cnn3ccc(CN4CCN(C(=O)C5(C(F)(F)F)CC5)CC4)cc23)C(=O)N1 [Example 184, 1-(5-((4-(1-(trifluoromethyl)cyclopropane-1-carbonyl)piperazin-1-yl)methyl)pyrazolo[1,5-a]pyridin-3-yl)dihydropyrimidine-2,4(1H,3H)-dione] |  |  | 
47% | 53% | 582 nM | CC(C)S(=O)(=O)N1CCN(Cc2ccn3ncc(N4CCC(=O)NC4=O)c3c2)CC1 [Example 185, 1-(5-((4-(isopropylsulfonyl)piperazin-1-yl)methyl)pyrazolo[1,5-a]pyridin-3-yl)dihydropyrimidine-2,4(1H,3H)-dione] |  |  | 
